Some test systems named below: MCF7; RPMI-8226; M14; HL-60; SF-268; SF-539; IGROV-1; SNB-75; A498; SK-MEL-28; A549; UO-31; UACC-257; SR; UACC-62; OVCAR-3; Hs-578T; TK-10; HCT-15.
Experiment in all cases: inhibition of tumour cell growth, NCI panel, 48 h

Here are results for eleven compounds from ChEMBL document CHEMBL1201862, “PubChem BioAssay data set” (2004).

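Interpolation was linear, between the two tested concentrations surrounding the appropriate level; five concentrations were tested over 48 hours in 96-well plates. GI50 is the concentration that inhibits growth by half.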 The source made the active and inactive calls. No stated cut-off is given here; in the data, active = GI50 up to about 1.1 µM and inactive = higher.

Turning to `Cc1cc(-c2nc3cc(F)ccc3s2)ccc1NC(=O)C(C)N` (stereo not drawn), the GI50 with MCF7 was 0.0258 µM (active); in the assay on RPMI-8226 it was 5.89 µM (inactive); in the assay on M14 it was 4.93 µM (inactive); in the assay on HL-60, 0.249 µM (active); with SF-268, 4.53 µM (inactive); in the assay with SF-539, 10.4 µM (inactive). Moreover, the GI50 in the assay with IGROV-1 is 0.0408 µM (active); in the assay on SNB-75, 5.05 µM (inactive); in the assay on A498 it was 3.77 µM (inactive); with SK-MEL-28 it was 5.25 µM (inactive); in the assay with A549, 3.77 µM (inactive); in the assay on UO-31, 3.7 µM (inactive). Also, the GI50 with UACC-257 is 4.31 µM (inactive); with SR, 0.351 µM (active); with UACC-62, 4.02 µM (inactive); in the assay on OVCAR-3 it was 3.41 µM (inactive); in the assay on Hs-578T, 4.95 µM (inactive); with TK-10, 0.0501 µM (active). Besides, the GI50 in the assay on HCT-15 was 2.65 µM.
For the compound `O=C1C(Cl)=C(N2CCC[C@@H]2CO)C(=O)c2c(O)ccc(O)c21`, the GI50 in the assay on MCF7 is 1.16 µM (inactive); in the assay on RPMI-8226, 0.395 µM (active); in the assay with M14, 1.67 µM (inactive); in the assay with HL-60, 0.485 µM (active); in the assay on SF-268 it was 1.29 µM (inactive); in the assay with SF-539, 1.92 µM (inactive). For the same compound, the GI50 was 1.79 µM (inactive) in the assay with IGROV-1; 1.69 µM (inactive) in the assay on SNB-75; 2.9 µM (inactive) with A498; 1.82 µM (inactive) with SK-MEL-28; 2.08 µM (inactive) with A549; 1.82 µM (inactive) with UO-31. For the same compound, the GI50 with UACC-257 was 1.76 µM (inactive); with SR, 2.18 µM (inactive); in the assay with UACC-62 it was 1.36 µM (inactive); with OVCAR-3, 1.67 µM (inactive); in the assay with Hs-578T, 2.06 µM (inactive); with TK-10, 1.88 µM (inactive). Also, the GI50 with HCT-15 is 1.87 µM.
On to `Clc1cc(Cl)cc(/N=C/C=C/Nc2cc(Cl)cc(Cl)c2)c1`, for which the GI50 in the assay on MCF7 is 13.4 µM (inactive); in the assay with RPMI-8226, 24.5 µM (inactive); in the assay with M14 it was 22.3 µM (inactive); in the assay with HL-60, 19.1 µM (inactive); in the assay on SF-268, 18.9 µM (inactive); with SF-539 it was 21.6 µM (inactive). For the same compound, the GI50 in the assay on IGROV-1 is 22.6 µM (inactive); in the assay with SNB-75, 13.1 µM (inactive); in the assay with A498 it was 21 µM (inactive); in the assay with SK-MEL-28 it was 25.3 µM (inactive); in the assay with A549, 18.3 µM (inactive); in the assay with UO-31, 23.4 µM (inactive). Further, the GI50 in the assay on UACC-257 was 33.7 µM (inactive); with SR, 31.8 µM (inactive); in the assay with UACC-62 it was 19.7 µM (inactive); with OVCAR-3, 13.7 µM (inactive); in the assay with Hs-578T, 19.1 µM (inactive); in the assay with TK-10, 29.9 µM (inactive). In the assay with HCT-15, this compound showed a GI50 of 14.9 µM.
`CC12CP(=O)(O)CC1C2(Cl)Cl` (stereo not drawn): the GI50 in the assay with MCF7, in the assay with RPMI-8226, in the assay with M14, with HL-60, with SF-268 and in the assay on SF-539 was > 100 µM (inactive) each time. The GI50 with IGROV-1 is > 100 µM (inactive); in the assay with SNB-75, > 100 µM (inactive); in the assay on A498 it was > 100 µM (inactive); in the assay on SK-MEL-28, > 100 µM (inactive); with A549, > 100 µM (inactive); in the assay on UO-31, 50.6 µM (inactive). The GI50 in the assay on UACC-257, in the assay on SR, in the assay with UACC-62, with OVCAR-3, in the assay on Hs-578T and with TK-10 was > 100 µM (inactive) each time. For the same compound, the GI50 in the assay on HCT-15 is greater than 100 µM.
As to `O=C(CCCCCCC(=O)Nc1cccnc1)NO` [PYROXAMIDE], the GI50 is 3.8 µM (inactive) with MCF7; 3.14 µM (inactive) in the assay with RPMI-8226; 4.45 µM (inactive) with M14; 10.2 µM (inactive) in the assay on HL-60; 4.26 µM (inactive) in the assay with SF-268; 3.09 µM (inactive) in the assay with SF-539. Besides, the GI50 in the assay with IGROV-1 is 14.7 µM (inactive); in the assay with SNB-75 it was 18.1 µM (inactive); with A498, 11 µM (inactive); in the assay on SK-MEL-28, 4.4 µM (inactive); with A549, 21.7 µM (inactive); in the assay on UO-31, 6.5 µM (inactive). Further, the GI50 in the assay with UACC-257 is 4.75 µM (inactive); with SR, > 100 µM (inactive); in the assay with UACC-62, 3.34 µM (inactive); in the assay on OVCAR-3 it was 2.86 µM (inactive); in the assay with Hs-578T it was 5.15 µM (inactive); in the assay with TK-10 it was 7.11 µM (inactive). The compound also gave a GI50 with HCT-15 of 34.4 µM.
In the case of `COC(=O)NC(Nc1ccc(Cl)cc1Cl)(C(F)(F)F)C(F)(F)F`, the GI50 in the assay on MCF7 is > 100 µM (inactive); in the assay on RPMI-8226 it was 31.7 µM (inactive); in the assay with M14, 52.4 µM (inactive); in the assay with HL-60, 29.3 µM (inactive); in the assay with SF-268, 60.4 µM (inactive); in the assay with SF-539, 49 µM (inactive). For the same compound, the GI50 in the assay on IGROV-1 is 61.7 µM (inactive); with SNB-75, > 100 µM (inactive); in the assay with A498, 33.2 µM (inactive); in the assay with SK-MEL-28 it was > 100 µM (inactive); with A549, 38.4 µM (inactive); with UO-31, 18 µM (inactive). For the same compound, the GI50 with UACC-257 was > 100 µM (inactive); with SR, 5.31 µM (inactive); in the assay with UACC-62, 5.2 µM (inactive); in the assay on OVCAR-3 it was 79.6 µM (inactive); in the assay on Hs-578T it was > 100 µM (inactive); with TK-10 it was 92.7 µM (inactive). In the assay with HCT-15, the GI50 is 4.38 µM.
As to `O=C(O)[C@@H]1C[C@@H](O)CN1C(=O)OCc1ccccc1`, the GI50 with MCF7, with RPMI-8226, in the assay with M14, with HL-60, in the assay on SF-268 and in the assay with SF-539 was > 100 µM (inactive) each time. The GI50 is > 100 µM (inactive) with IGROV-1; 1.16 µM (inactive) in the assay with SNB-75; > 100 µM (inactive) with A498; > 100 µM (inactive) in the assay on SK-MEL-28; > 100 µM (inactive) with A549; > 100 µM (inactive) in the assay on UO-31. The GI50 with UACC-257, in the assay with SR, in the assay with UACC-62, in the assay on OVCAR-3, with Hs-578T and in the assay on TK-10 was > 100 µM (inactive) in each case. Moreover, the GI50 in the assay with HCT-15 was greater than 100 µM.
As to `Cc1ccc(N)cc1.O=S(=O)(O)/C(=C\c1ccccc1)c1ccccc1`, the GI50 is > 100 µM (inactive) in the assay with MCF7; > 100 µM (inactive) with RPMI-8226; > 100 µM (inactive) in the assay on M14; 53.2 µM (inactive) in the assay on HL-60; > 100 µM (inactive) with SF-268; > 100 µM (inactive) in the assay on SF-539. The GI50 in the assay on IGROV-1 was > 100 µM (inactive); in the assay on SNB-75 it was > 100 µM (inactive); in the assay with A498 it was > 100 µM (inactive); in the assay on SK-MEL-28, > 100 µM (inactive); in the assay with A549 it was > 100 µM (inactive); in the assay with UO-31, 70.6 µM (inactive). Also, the GI50 in the assay on UACC-257 was > 100 µM (inactive); in the assay with SR, > 100 µM (inactive); in the assay with UACC-62, 44 µM (inactive); in the assay on OVCAR-3, > 100 µM (inactive); with Hs-578T, > 100 µM (inactive); in the assay on TK-10 it was > 100 µM (inactive). This compound also showed a GI50 with HCT-15 greater than 100 µM.
For the compound `C(#C[C@@]12CCC[C@@H]1NCO2)c1ccc2c(c1)OCO2`, the GI50 in the assay with MCF7 was 57.9 µM (inactive); in the assay with RPMI-8226 it was 36.6 µM (inactive); in the assay on M14 it was 24.7 µM (inactive); in the assay on HL-60, 24 µM (inactive); in the assay with SF-268 it was 65.2 µM (inactive); in the assay on SF-539, 29.3 µM (inactive). The GI50 was 45.9 µM (inactive) in the assay on IGROV-1; 45.1 µM (inactive) in the assay with SNB-75; > 100 µM (inactive) with A498; 35.6 µM (inactive) in the assay on SK-MEL-28; > 100 µM (inactive) in the assay with A549; 30.3 µM (inactive) in the assay on UO-31. The GI50 with UACC-257 was 44.2 µM (inactive); in the assay with SR it was 36.8 µM (inactive); in the assay on UACC-62 it was 78.3 µM (inactive); in the assay with OVCAR-3 it was 65.6 µM (inactive); in the assay on Hs-578T it was 37.8 µM (inactive); in the assay with TK-10 it was 73.3 µM (inactive). This compound also showed a GI50 with HCT-15 of 54.8 µM.
`CC1CCC(=O)C(C(=O)CC2CC(=O)NC(=O)C2)C1` (stereo not drawn): the GI50 in the assay with MCF7, in the assay on RPMI-8226, in the assay with M14, with HL-60, in the assay with SF-268 and with SF-539 was > 100 µM (inactive) throughout. Further, the GI50 with IGROV-1, with SNB-75, with A498, with SK-MEL-28, in the assay with A549 and with UO-31 was > 100 µM (inactive) in each case. For the same compound, the GI50 with UACC-257, in the assay with SR, in the assay with UACC-62, with OVCAR-3, with Hs-578T and in the assay on TK-10 was > 100 µM (inactive) in each case. For the same compound, the GI50 in the assay on HCT-15 was greater than 100 µM.
Turning to `O=c1ss/c(=N\c2ccccc2)n1-c1ccccc1`, the GI50 is 19.5 µM (inactive) in the assay on MCF7; 21.4 µM (inactive) in the assay with RPMI-8226; 19 µM (inactive) in the assay with M14; 31.1 µM (inactive) with HL-60; 18.5 µM (inactive) in the assay with SF-268; 35.9 µM (inactive) in the assay on SF-539. For the same compound, the GI50 was 21.9 µM (inactive) in the assay on SNB-75; > 100 µM (inactive) in the assay with A498; 36.9 µM (inactive) with SK-MEL-28; 35.4 µM (inactive) in the assay on A549; 17.5 µM (inactive) in the assay on UO-31; 20.4 µM (inactive) in the assay on UACC-257. Further, the GI50 with SR is 17.3 µM (inactive); in the assay on UACC-62, 31.1 µM (inactive); with OVCAR-3, 22.3 µM (inactive); in the assay with Hs-578T, 32.4 µM (inactive); in the assay on TK-10 it was 50.6 µM (inactive); with HCT-15, 17.8 µM.
